Source: the supplement of paper PMC8882468

Tests used:
Assay in all cases: CTG-3D luminescence at 96 h relative to day-0 seeding control (ratio to day 0); higher = more growth / less cytotoxicity
[1] = test system: HCI-002 (organoid from a triple-negative breast cancer xenograft)
Method: (§1)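 PDxO 3D drug screen (set 2), 8-point dose, 96 h; CTG-3D luminescence normalised to day-0 seeding control (mean of 4 wells each).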

[2] = test system: HCI-005.E2 (organoid from a breast cancer xenograft with a HER2-positive history)
Method: as §1

[3] = test system: HCI-008 (organoid from a HER2-enriched breast cancer xenograft)
Method: as §1

[4] = test system: HCI-010 (organoid from a breast cancer xenograft)
Method: as §1

[5] = test system: HCI-011.E2 (organoid from an ER-positive breast cancer xenograft)
Method: as §1

[6] = test system: HCI-017.E2 (organoid from an ER-positive breast cancer xenograft)
Method: as §1

[7] = test system: HCI-023 (organoid from a triple-negative breast cancer xenograft)
Method: as §1

CC/C(=C(\c1ccc(O)cc1)c1ccc(OCCN(C)C)cc1)c1ccccc1 [4-hydroxytamoxifen]
CTG-3D luminescence at 96 h
Details	12.5 pM	0.00025 µM	0.005 µM	0.1 µM	1 µM	10 µM	100 µM	625 fM
[1], days in culture: 127	2.42	2.73	2.8	2.99	2.6	2.18	0.0155	2.75
[1], days in culture: 155	4.99	5.16	5.23	5.86	4.71	4.14	0.0228	4.09
[1], days in culture: 168	3.07	2.97	4.33	2.96	3.6	0.901	0.00411	4.11
[3], days in culture: 325	1.16	3.13	1.6	3.49	3.48	2.12	0.0259	1.52
[3], days in culture: 340	1.38	1.51	1.18	1.09	1.46	–	0.00621	1.32
[3], days in culture: 354	1.2	1.03	2.12	1.34	1.26	1.3	0.00452	0.999
[3], days in culture: 382	1.86	1.74	1.28	1.63	0.792	1.56	0.0061	1.74
[4], days in culture: 79	2.04	1.84	1.96	1.93	1.9	1.48	0.00321	2.05
[4], days in culture: 86	1.97	2.48	2.21	2.15	2.19	1.35	0.0109	2.16
[4], days in culture: 102	1.1	1.13	1.07	1.2	1.23	0.95	0.00505	0.88
[4], days in culture: 164	1.4	1.46	1.45	1.45	1.38	0.899	0.00677	1.23
[5], days in culture: 74	2.1	1.95	2.01	2.04	1.63	1.31	-0.00194	2.23
[6], days in culture: 85	2.08	1.78	1.81	2.09	1.49	1.08	0.0372	2.06
[7], days in culture: 223	2.56	1.54	1.73	1.73	1.16	1.64	0.0104	2.1
[7], days in culture: 238	1.29	1.34	1.35	1.29	1.4	1.46	0.00895	1.43
[7], days in culture: 252	2.34	1.72	1.66	1.88	1.73	1.63	0.00241	1.66

CTG-3D luminescence at 96 h
Details	12.5 pM	0.00025 µM	0.005 µM	0.1 µM	1 µM	10 µM	100 µM	625 fM
[2]	1.68	1.99	2.22	2.35	2.26	2.01	0.0139	2.45
[5]	1.35	1.71	1.2	1.83	1.35	1.72	0.0138	1.77
[6]	2.22	2.39	2.07	2.2	1.83	1.95	0.0156	2.35
